Data on six compounds can be found in patent publication US8822517B2, “Arylosulfonamides for the treatment of CNS diseases” (Adamed SP. Z O.O., priority 2010, dated 2014).

Test [1] concerns the target serotoninergic 5-HT7 receptor (Homo sapiens, UniProt P34969). The test can be described thus: Binding assay 5-HT7 (h), [3H]LSD, CHO cells. The arrangement: expressed in transfected cells; host or cells: CHO cells. To be noted: read-out: 5-HT7. An outline of the steps:
(§1)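 Total binding and binding under an excess of unlabelled competitor were both measured, the difference giving specific binding. Counts came from scintillation detection, and compound concentration was 1×10^−6 M.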

In test [2] the target is T1, serotonine transporter (SERT) receptor (Homo sapiens, UniProt P31645).
T1 construct: expressed in transfected cells; host or cells: CHO cells
T1 sequence (P31645 whole entry): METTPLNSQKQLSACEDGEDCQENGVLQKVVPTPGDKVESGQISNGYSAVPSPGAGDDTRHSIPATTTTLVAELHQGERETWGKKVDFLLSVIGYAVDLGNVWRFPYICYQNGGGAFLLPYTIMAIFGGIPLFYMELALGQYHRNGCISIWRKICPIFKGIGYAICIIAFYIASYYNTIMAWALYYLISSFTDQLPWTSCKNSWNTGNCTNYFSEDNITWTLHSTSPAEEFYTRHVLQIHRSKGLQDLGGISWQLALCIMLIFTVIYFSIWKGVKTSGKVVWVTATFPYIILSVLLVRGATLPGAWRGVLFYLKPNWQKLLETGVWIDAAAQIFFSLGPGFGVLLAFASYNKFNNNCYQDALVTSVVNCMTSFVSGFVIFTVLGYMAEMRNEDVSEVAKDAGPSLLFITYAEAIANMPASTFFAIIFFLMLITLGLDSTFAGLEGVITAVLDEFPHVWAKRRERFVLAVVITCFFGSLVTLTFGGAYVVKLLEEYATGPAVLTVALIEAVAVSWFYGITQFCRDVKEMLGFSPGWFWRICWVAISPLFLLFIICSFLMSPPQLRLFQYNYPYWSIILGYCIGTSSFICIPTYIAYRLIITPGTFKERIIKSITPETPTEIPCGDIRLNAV
The test can be described thus: Binding assay SERT (h), [3H]imipramine, CHO cells. To be noted: read-out: SERT [%]. In a few lines:
as §1

For test [3], the system named is adrenergic α1 receptor. The test can be described thus: Binding assay α1 (non-selective), [3H]prazosin, rat cerebral cortex. As to conditions: percent inhibition of control specific binding; compounds tested at 1×10^−6 M. In a few lines: as §1
Test [4] concerns the target serotoninergic 5-HT2A receptor (Homo sapiens, UniProt P28223). The experiment in a line: Binding assay 5-HT2A (h), [3H]ketanserin, HEK-293 cells. The arrangement: expressed in transfected cells; host or cells: HEK-293 cells. To be noted: read-out: 5-HT2A. In a few lines:
as §1

In test [5] the target is T2, serotoninergic 5-HT1A receptor (Homo sapiens, UniProt P08908).
T2 sequence (P08908 1-422): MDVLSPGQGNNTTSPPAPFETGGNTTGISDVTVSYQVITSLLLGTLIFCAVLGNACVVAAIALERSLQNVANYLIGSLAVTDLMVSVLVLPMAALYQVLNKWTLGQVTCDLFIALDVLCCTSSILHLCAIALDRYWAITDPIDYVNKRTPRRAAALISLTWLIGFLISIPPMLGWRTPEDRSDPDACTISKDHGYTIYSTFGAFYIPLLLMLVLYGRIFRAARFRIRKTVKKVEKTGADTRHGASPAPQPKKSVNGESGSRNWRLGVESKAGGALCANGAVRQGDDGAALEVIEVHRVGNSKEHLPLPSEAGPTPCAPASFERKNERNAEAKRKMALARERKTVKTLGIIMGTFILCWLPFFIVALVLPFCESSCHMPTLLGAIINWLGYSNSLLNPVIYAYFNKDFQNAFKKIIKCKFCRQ
The test can be described thus: Binding assay 5-HT1A (h), [3H]8-OH-DPAT, HEK-293 cells. The arrangement: expressed in transfected cells; host or cells: HEK-293 cells. As to conditions: read-out: 5-HT1A. In a few lines:
as §1

The target in test [6] is dopaminergic D2 receptor (Homo sapiens, UniProt P14416). The test can be described thus: Binding assay D2S (h), [3H]methyl-spiperone, HEK-293 cells. The arrangement: expressed in transfected cells; host or cells: HEK-293 cells. To be noted: read-out: D2 [%]. In a few lines: as §1
Chain of dopaminergic D2 receptor (P14416 1-414 isoform P14416-2): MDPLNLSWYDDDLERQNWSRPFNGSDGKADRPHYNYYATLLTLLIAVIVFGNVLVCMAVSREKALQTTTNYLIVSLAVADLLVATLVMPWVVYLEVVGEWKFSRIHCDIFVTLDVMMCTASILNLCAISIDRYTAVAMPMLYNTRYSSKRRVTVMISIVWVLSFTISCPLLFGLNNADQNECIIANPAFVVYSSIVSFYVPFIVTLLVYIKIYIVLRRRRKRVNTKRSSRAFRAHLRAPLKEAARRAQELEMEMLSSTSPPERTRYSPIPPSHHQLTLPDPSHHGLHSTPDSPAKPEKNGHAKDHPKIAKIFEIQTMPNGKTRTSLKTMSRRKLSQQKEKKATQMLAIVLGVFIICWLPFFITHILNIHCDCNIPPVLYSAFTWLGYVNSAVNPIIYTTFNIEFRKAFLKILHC
In test [7] the target is serotoninergic 5-HT6 receptor (Homo sapiens, UniProt P50406). The experiment in a line: Binding assay 5-HT6 (h), [3H]LSD, CHO cells. On the set-up: expressed in transfected cells; host or cells: CHO cells. As to conditions: read-out: 5-HT6. In a few lines: as §1
Chain of serotoninergic 5-HT6 receptor (P50406 whole entry): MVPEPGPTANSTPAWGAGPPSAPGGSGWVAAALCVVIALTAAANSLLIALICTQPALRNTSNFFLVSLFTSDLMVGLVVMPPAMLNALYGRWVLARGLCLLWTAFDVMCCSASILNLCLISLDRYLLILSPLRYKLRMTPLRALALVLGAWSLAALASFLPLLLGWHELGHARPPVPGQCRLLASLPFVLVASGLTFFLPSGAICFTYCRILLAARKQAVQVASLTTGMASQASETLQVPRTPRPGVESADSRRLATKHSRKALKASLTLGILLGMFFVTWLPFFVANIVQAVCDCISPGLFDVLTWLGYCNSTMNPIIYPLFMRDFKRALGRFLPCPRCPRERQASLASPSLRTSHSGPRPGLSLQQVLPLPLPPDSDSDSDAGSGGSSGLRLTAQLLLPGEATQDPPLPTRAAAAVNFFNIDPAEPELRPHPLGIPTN
In test [8] the target is dopaminergic D3 receptor (Homo sapiens, UniProt P35462). The experiment in a line: Binding assay D3 (h), [3H]methyl-spiperone, CHO cells. On the set-up: expressed in transfected cells; host or cells: CHO cells. As to conditions: read-out: D3 [%]. In a few lines: as §1
Chain of dopaminergic D3 receptor (P35462 whole entry): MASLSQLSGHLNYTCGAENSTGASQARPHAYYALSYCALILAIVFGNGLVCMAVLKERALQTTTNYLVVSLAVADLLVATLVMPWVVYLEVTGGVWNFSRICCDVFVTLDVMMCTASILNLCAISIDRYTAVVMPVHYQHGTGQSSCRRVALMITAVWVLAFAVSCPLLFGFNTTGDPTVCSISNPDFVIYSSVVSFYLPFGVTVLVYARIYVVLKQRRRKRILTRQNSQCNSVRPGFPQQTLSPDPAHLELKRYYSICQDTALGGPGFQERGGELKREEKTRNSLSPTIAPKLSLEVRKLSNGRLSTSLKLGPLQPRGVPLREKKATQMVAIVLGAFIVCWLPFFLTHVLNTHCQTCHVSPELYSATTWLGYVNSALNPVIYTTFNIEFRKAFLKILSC

Chain of serotoninergic 5-HT2A receptor (P28223 whole entry): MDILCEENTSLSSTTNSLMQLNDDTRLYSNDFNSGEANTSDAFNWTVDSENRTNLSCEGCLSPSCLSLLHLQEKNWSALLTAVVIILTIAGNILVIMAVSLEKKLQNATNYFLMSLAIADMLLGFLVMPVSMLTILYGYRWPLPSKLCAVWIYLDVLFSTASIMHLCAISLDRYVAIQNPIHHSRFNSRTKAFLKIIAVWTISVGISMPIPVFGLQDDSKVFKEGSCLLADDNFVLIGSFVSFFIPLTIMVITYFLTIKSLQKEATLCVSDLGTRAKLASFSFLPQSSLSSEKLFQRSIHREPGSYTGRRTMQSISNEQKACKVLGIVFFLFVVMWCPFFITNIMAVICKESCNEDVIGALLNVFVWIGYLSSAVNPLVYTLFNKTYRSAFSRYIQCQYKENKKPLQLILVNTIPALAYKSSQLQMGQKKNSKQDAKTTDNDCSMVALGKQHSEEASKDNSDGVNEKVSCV
Chain of serotoninergic 5-HT7 receptor (P34969 whole entry): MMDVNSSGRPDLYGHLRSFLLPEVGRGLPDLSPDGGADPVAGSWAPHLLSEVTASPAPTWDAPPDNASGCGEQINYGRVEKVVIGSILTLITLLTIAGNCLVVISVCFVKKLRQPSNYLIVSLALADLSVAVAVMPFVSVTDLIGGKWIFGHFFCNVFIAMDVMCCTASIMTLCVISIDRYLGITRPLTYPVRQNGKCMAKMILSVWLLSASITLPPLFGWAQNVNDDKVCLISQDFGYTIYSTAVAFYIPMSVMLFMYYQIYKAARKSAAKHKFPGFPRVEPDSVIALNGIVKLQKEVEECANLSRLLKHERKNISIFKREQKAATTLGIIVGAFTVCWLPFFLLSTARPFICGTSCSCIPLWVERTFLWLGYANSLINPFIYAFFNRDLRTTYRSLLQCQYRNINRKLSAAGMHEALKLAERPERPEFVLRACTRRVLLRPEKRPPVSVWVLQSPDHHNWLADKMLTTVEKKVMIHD

For `O=c1[nH]c2ccc(S(=O)(=O)NCCCCN3CCN(c4cccc5c4OCCO5)CC3)cc2o1` [Compound 403, N-[4-[4-(2,3-Dihydro-1,4-benzodioxin-5-yl)piperazin-1-yl]butyl]-2-oxo-3H-1,3-benzoxazole-6-sulphonamide], the inhibition at 1 µM in test [1] was 95%; in test [2], -9%; in test [4], 64%; in test [5], 98%; in test [6] it was 85%; in test [7], -21%. The inhibition at 1 µM in test [8] stood at 99%. In addition, the “α1 [%]” value in test [3] stood at 98%.

On to `O=S(=O)(NCCCCN1CCN(c2cccc3c2OCCO3)CC1)c1ccc2c(c1)OCO2` [Compound 404, N-[4-[4-(2,3-Dihydro-1,4-benzodioxin-5-yl)piperazin-1-yl]butyl]-1,3-benzodioxole-5-sulphonamide], for which the inhibition at 1 µM in test [1] was 96%; in test [2], -9%; in test [4], 55%; in test [5], 97%; in test [6], 60%; in test [7] it was 4%. In test [8], the inhibition at 1 µM was 92%. The “α1 [%]” value in test [3] was found to be 93%.

Regarding `O=S(=O)(NCCCN1CCN(c2cccc3c2OCCO3)CC1)c1cccc2ccccc12` [Compound 405, N-[3-[4-(2,3-Dihydro-1,4-benzodioxin-5-yl)piperazin-1-yl]propyl]naphthalene-1-sulphonamide], the inhibition at 1 µM in test [1] is 93%; in test [2], -5%; in test [4] it was 74%; in test [5], 97%; in test [6] it was 68%; in test [7] it was 53%. For the same compound, the inhibition at 1 µM in test [8] amounted to 62%. Moreover, the “α1 [%]” value in test [3] amounted to 82%.

Take `O=S(=O)(NCCCN1CCN(c2cccc3c2OCCO3)CC1)c1ccc2ccccc2c1` [Compound 406, N-[3-[4-(2,3-Dihydro-1,4-benzodioxin-5-yl)piperazin-1-yl]propyl]naphthalene-2-sulphonamide]: the inhibition at 1 µM is 92% in test [1]; 10% in test [2]; 28% in test [4]; 99% in test [5]; 59% in test [6]; 54% in test [7]. The inhibition at 1 µM in test [8] was determined as 54%. Also, the “α1 [%]” value in test [3] was 77%.

Regarding `O=S(=O)(NCCCN1CCN(c2cccc3c2OCCO3)CC1)c1ccc2cc(Cl)ccc2c1` [Compound 407, 6-Chloro-N-[3-[4-(2,3-dihydro-1,4-benzodioxin-5-yl)piperazin-1-yl]propyl]naphthalene-2-sulphonamide], the inhibition at 1 µM is 102% in test [1]; -2% in test [2]; 50% in test [4]; 88% in test [5]; 58% in test [6]; 37% in test [7]. Moreover, in test [8], the inhibition at 1 µM was determined as 84%. The “α1 [%]” value in test [3] is reported as 72%.

In the case of `O=S(=O)(NCCCN1CCN(c2cccc3c2OCCO3)CC1)c1ccc(F)cc1` [Compound 408, N-[3-[4-(2,3-Dihydro-1,4-benzodioxin-5-yl)piperazin-1-yl]propyl]-4-fluorobenzenesulphonamide], the inhibition at 1 µM in test [1] was 83%; in test [2], -18%; in test [4], -50%; in test [5] it was 101%; in test [6], 40%; in test [7] it was 35%. In addition, the inhibition at 1 µM in test [8] was found to be 70%. In test [3], the “α1 [%]” value is listed as 70%.
